Laboratory results published in the NIST ThermoML archive (doi:10.1016/j.fluid.2014.10.004).

Experiments:
[1] = refractive index (Na D-line) (dimensionless); xn = mol fraction of the nth substance listed; settings: 101.3 kPa, Liquid, Standard Abbe refractometry
[2] = xn = mol fraction of the nth substance listed; settings: 101.3 kPa, Liquid, Sing-around technique in a fixed-path interferometer

CC(Cl)(Cl)Cl [1,1,1-trichloroethane] + C[N+](=O)[O-]
Settings | refractive index, 298.15 K | refractive index, 308.15 K | refractive index, 318.15 K | speed of sound, 298.15 K [m/s] | speed of sound, 308.15 K [m/s] | speed of sound, 318.15 K [m/s]
[1], x1 = 0.0921 | 1.38777 | 1.38231 | 1.37702 | – | – | –
[1], x1 = 0.1727 | 1.39427 | 1.38809 | 1.38239 | – | – | –
[1], x1 = 0.2614 | 1.4006 | 1.39442 | 1.3887 | – | – | –
[1], x1 = 0.3951 | 1.40894 | 1.40268 | 1.39695 | – | – | –
[1], x1 = 0.4862 | 1.41396 | 1.40768 | 1.40208 | – | – | –
[1], x1 = 0.5904 | 1.41903 | 1.41302 | 1.40727 | – | – | –
[1], x1 = 0.7066 | 1.42412 | 1.41834 | 1.41249 | – | – | –
[1], x1 = 0.8358 | 1.42923 | 1.42338 | 1.41753 | – | – | –
[1], x1 = 0.9012 | 1.43156 | 1.42575 | 1.41987 | – | – | –
[1], x1 = 1 | 1.43492 | 1.42908 | 1.42311 | – | – | –
[2], x1 = 0.0921 | – | – | – | 1258.6 | 1219.9 | 1181.4
[2], x1 = 0.1727 | – | – | – | 1211.5 | 1173.7 | 1136
[2], x1 = 0.2614 | – | – | – | 1166.3 | 1129.1 | 1092.1
[2], x1 = 0.3951 | – | – | – | 1109.8 | 1073.5 | 1037.3
[2], x1 = 0.4862 | – | – | – | 1079.3 | 1043.4 | 1007.6
[2], x1 = 0.5904 | – | – | – | 1048.7 | 1013.2 | 977.89
[2], x1 = 0.7066 | – | – | – | 1019.3 | 984.72 | 949.76
[2], x1 = 0.8358 | – | – | – | 992.76 | 957.84 | 923.21
[2], x1 = 0.9012 | – | – | – | 980.43 | 945.74 | 911.39
[2], x1 = 1 | – | – | – | 962.94 | 928.68 | 894.71

ClC(Cl)C(Cl)Cl [1,1,2,2-tetrachloroethane] + C[N+](=O)[O-]
Settings | refractive index, 298.15 K | refractive index, 308.15 K | refractive index, 318.15 K | speed of sound, 298.15 K [m/s] | speed of sound, 308.15 K [m/s] | speed of sound, 318.15 K [m/s]
[1], x1 = 0.0711 | 1.39391 | 1.3893 | 1.38479 | – | – | –
[1], x1 = 0.1888 | 1.41442 | 1.4099 | 1.40582 | – | – | –
[1], x1 = 0.2563 | 1.42485 | 1.42025 | 1.4162 | – | – | –
[1], x1 = 0.3464 | 1.43683 | 1.43222 | 1.42805 | – | – | –
[1], x1 = 0.4341 | 1.44721 | 1.4425 | 1.43807 | – | – | –
[1], x1 = 0.5431 | 1.45848 | 1.45366 | 1.44909 | – | – | –
[1], x1 = 0.6654 | 1.46937 | 1.46448 | 1.4596 | – | – | –
[1], x1 = 0.8211 | 1.48094 | 1.47589 | 1.47087 | – | – | –
[1], x1 = 0.9285 | 1.48772 | 1.48262 | 1.47752 | – | – | –
[1], x1 = 1 | 1.49174 | 1.48654 | 1.48137 | – | – | –
[2], x1 = 0.0711 | – | – | – | 1293.1 | 1254.8 | 1216.6
[2], x1 = 0.1888 | – | – | – | 1257.7 | 1220.8 | 1184.5
[2], x1 = 0.2563 | – | – | – | 1241.8 | 1205.8 | 1170
[2], x1 = 0.3464 | – | – | – | 1224.1 | 1189.1 | 1154.2
[2], x1 = 0.4341 | – | – | – | 1209.8 | 1175.4 | 1141.1
[2], x1 = 0.5431 | – | – | – | 1194.8 | 1161.1 | 1127.6
[2], x1 = 0.6654 | – | – | – | 1180.7 | 1147.6 | 1114.7
[2], x1 = 0.8211 | – | – | – | 1165.3 | 1133 | 1100.8
[2], x1 = 0.9285 | – | – | – | 1156.2 | 1124.2 | 1092.3
[2], x1 = 1 | – | – | – | 1150.6 | 1118.7 | 1087

ClCCCl [1,2-dichloroethane] + C[N+](=O)[O-]
x1 = 1
Settings | refractive index, 298.15 K | refractive index, 308.15 K | refractive index, 318.15 K | speed of sound, 298.15 K [m/s] | speed of sound, 308.15 K [m/s] | speed of sound, 318.15 K [m/s]
[1] | 1.44206 | 1.43661 | 1.43109 | – | – | –
[2] | – | – | – | 1194.4 | 1156.1 | 1117.8

ClCCCCl [1,3-dichloropropane] + C[N+](=O)[O-]
Settings | refractive index, 298.15 K | refractive index, 308.15 K | refractive index, 318.15 K | speed of sound, 298.15 K [m/s] | speed of sound, 308.15 K [m/s] | speed of sound, 318.15 K [m/s]
[1], x1 = 0.0878 | 1.38808 | 1.38325 | 1.37861 | – | – | –
[1], x1 = 0.1939 | 1.39757 | 1.39278 | 1.38807 | – | – | –
[1], x1 = 0.2938 | 1.40567 | 1.40095 | 1.39632 | – | – | –
[1], x1 = 0.3998 | 1.41335 | 1.40869 | 1.40422 | – | – | –
[1], x1 = 0.5028 | 1.42017 | 1.41551 | 1.41092 | – | – | –
[1], x1 = 0.6154 | 1.42699 | 1.42236 | 1.41782 | – | – | –
[1], x1 = 0.7207 | 1.43278 | 1.42826 | 1.4234 | – | – | –
[1], x1 = 0.8326 | 1.43844 | 1.43358 | 1.42879 | – | – | –
[1], x1 = 0.9404 | 1.44348 | 1.43846 | 1.43349 | – | – | –
[1], x1 = 1 | 1.44617 | 1.44123 | 1.43614 | – | – | –
[2], x1 = 0.0878 | – | – | – | 1303 | 1264 | 1225
[2], x1 = 0.1939 | – | – | – | 1285.9 | 1247.3 | 1208.9
[2], x1 = 0.2938 | – | – | – | 1273.6 | 1235.4 | 1197.3
[2], x1 = 0.3998 | – | – | – | 1263.5 | 1225.6 | 1187.8
[2], x1 = 0.5028 | – | – | – | 1255.9 | 1218.2 | 1180.7
[2], x1 = 0.6154 | – | – | – | 1249.4 | 1212 | 1174.8
[2], x1 = 0.7207 | – | – | – | 1244.7 | 1207.5 | 1170.5
[2], x1 = 0.8326 | – | – | – | 1240.8 | 1203.8 | 1167
[2], x1 = 0.9404 | – | – | – | 1237.9 | 1201 | 1164.4
[2], x1 = 1 | – | – | – | 1236.5 | 1199.7 | 1163.2
